Data as given in patent US6875761B2 (Eisai Co., Ltd., priority 1997, dated 2005).
Counter-ions that a name gives are not always drawn.

How the values were obtained:
serotonin 1A receptor = target: T1, serotonin 1A receptor (Rattus norvegicus, UniProt P19327); assay: Binding test on [3H] 8-hydroxy-dipropylaminotetralin, hippocampus receptor fraction; set-up: species or system SD rats; conditions: rat hippocampus receptor fraction, 0.5 nM [3H] 8-OH-DPAT, room temperature 30 min; read-out: 5HT1
T1 construct: To the receptor fraction of the hippocampus were added a test compound and 0.5 nM of [^3H]; 8-hydroxy-dipropylaminotetralin; from tissue; host or cells: rat hippocampus membrane fraction
T1 sequence (P19327 1-422): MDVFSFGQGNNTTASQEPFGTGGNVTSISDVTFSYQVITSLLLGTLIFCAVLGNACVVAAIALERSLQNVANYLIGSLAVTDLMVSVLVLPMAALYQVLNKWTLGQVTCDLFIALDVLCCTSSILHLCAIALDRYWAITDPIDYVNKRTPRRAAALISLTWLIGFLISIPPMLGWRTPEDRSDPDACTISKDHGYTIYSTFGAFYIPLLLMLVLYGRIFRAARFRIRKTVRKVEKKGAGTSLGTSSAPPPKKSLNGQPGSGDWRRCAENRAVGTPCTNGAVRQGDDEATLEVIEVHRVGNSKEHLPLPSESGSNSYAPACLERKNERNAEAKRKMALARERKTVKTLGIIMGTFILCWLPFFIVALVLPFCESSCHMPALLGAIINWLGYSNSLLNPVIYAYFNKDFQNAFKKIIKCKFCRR

serotonin 2 receptor = target: T2, serotonin 2 receptor (Rattus norvegicus, UniProt P14842); assay: Binding test on [3H] ketanserin, cerebral cortex receptor fraction; set-up: species or system SD rats; conditions: 0.3 nM [3H] ketanserin, 37° C. 15 min, read-out: 5HT2
T2 construct: To the receptor fraction of the cerebral cortex were added a test compound and 0.3 nM of [^3H] ketanserin; from tissue; host or cells: rat cerebral cortex membrane fraction
T2 sequence (P14842 whole entry): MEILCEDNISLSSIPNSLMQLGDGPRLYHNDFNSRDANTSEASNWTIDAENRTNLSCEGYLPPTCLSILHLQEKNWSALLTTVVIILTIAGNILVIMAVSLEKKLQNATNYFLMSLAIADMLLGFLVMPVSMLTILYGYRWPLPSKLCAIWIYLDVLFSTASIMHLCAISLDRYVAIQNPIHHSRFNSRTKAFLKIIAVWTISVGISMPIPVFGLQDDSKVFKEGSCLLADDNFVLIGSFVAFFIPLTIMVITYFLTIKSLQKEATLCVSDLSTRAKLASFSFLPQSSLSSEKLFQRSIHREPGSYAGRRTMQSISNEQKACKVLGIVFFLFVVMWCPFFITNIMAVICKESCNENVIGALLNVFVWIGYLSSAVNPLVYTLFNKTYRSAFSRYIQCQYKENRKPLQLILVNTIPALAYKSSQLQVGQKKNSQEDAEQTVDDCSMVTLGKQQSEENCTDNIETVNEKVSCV

Row | Ki (serotonin 1A receptor) [nM] | Ki (serotonin 2 receptor) [nM] | SMILES
1 | 21 | 2.2 | CCC(F)c1ccc(-c2cc3ccccc3c(N3CCN(CC)CC3)n2)cc1 (stereo not shown) [Example 5, 1-(4-ethylpiperazin-1-yl)-3-[4-(1-fluoropropyl)phenyl]isoquinoline Hydrochloride]
2 | 9.73 | 114 | CCN1CCN(c2nc(-c3ccc(N4CCC(O)CC4)nc3)cc3ccsc23)CC1 [Example 265, 5-[2-(4-hydroxypiperidin-1-yl)pyridin-5-yl]-7-(4-ethylpiperazin-1-yl)thieno[2,3-c]pyridine Hydrochloride]
3 | 91.6 | 7.62 | CCN1CCN(c2nc(C=C(COC)c3ccccc3)cc3ccccc23)CC1 (stereo in doubt) [Example 208, 3-[(E)-2-Methoxymethyl-2-Phenylethenyl]-1-(4-Ethylpiperazin-1-Yl)Isoquinoline Oxalate]
4 | 160 | 0.45 | COc1ccc(-c2cc3ccsc3c(N3CCN(CCO)CC3)n2)cc1 [Example 276, 5-(4-methoxyphenyl)-7-[4-(2-hydroxyethyl)piperazin-1-yl]thieno[2,3-c]pyridine hydrochloride]
5 | 27.3 | 6.6 | CCN1CCN(c2nc(-c3ccc(NCCO)cc3)cc3ccccc23)CC1 [Example 67, 3-[4-(2-Hydroxyethyl)Aminophenyl]-1-(4-Ethylpiperazin-1-Yl)Isoquinoline Hydrochloride]
6 | 1.72 | 5.37 | CCN1CCN(c2nc(-c3cccc(OCCO)c3)cc3ccoc23)CC1 [Example 298, 7-(1-ethylpiperazin-4-yl)-5-[3-(2-hydroxyethoxy)phenyl]furo[2,3-c]pyridine dihydrochloride]
7 | 61.2 | 1.14 | CCN1CCN(c2nc(-c3ccc(OC[C@@H](C)O)cc3)cc3ccsc23)CC1 [Example 435, 7-(4-ethylpiperazin-1-yl)-5-[4-(2-hydroxypropoxy)phenyl]thieno[2,3-c]pyridine dihydrochloride]
8 | 35.9 | 2.96 | CCN1CCN(c2nc(/C=C/c3ccc(S(C)(=O)=O)cc3)cc3ccccc23)CC1 [Example 201, 3-[(E)-2-(4-Methylsulfonylphenyl)Ethenyl]-1-(4-Ethylpiperazin-1-Yl)Isoquinoline Hydrochloride]
9 | 50.4 | 2.6 | CCN1CCN(c2nc(-c3ccc(C4CCCO4)cc3)cc3ccccc23)CC1 (stereo not shown) [Example 396, 1-(4-Ethylpiperazin-1-yl)-3-[4-(Tetrahydrofuran-2-yl)Phenyl]Isoquinoline Dihydrochloride]
10 | 6.4 | 19.1 | CCCN(C)S(=O)(=O)c1ccc(-c2cc3ccccc3c(N3CCN(CC)CC3)n2)cc1 [Example 358, 1-(4-ethylpiperazin-1-yl)-3-[4-(N-methyl-N-propylsulfamoyl)phenyl]isoquinoline dihydrochloride]
11 | 14.8 | 4 | CCN1CCN(c2nc(-c3ccc(C#N)cc3)cc3ccccc23)CC1 [Example 62, 3-(4-Cyanophenyl)-1-(4-Ethylpiperazin-1-Yl)Isoquinoline Hydrochloride]
12 | 200 | 1.97 | CCN1CCN(c2nc(-c3ccc(OC)cc3)cc3cccc(F)c23)CC1 [Example 233, 1-(1-ethylpiperazin-4-yl)-8-fluoro-3-(4-methoxyphenyl)isoquinoline dihydrochloride]
13 | 25.1 | 19.2 | CCN1CCN(c2nc(-c3ccc(CCO)s3)cc3ccccc23)CC1 [Example 163, 1-(1-ethylpiperazin-4-yl)-3-[2-(2-hydroxyethyl)thiophen-5-yl]isoquinoline dihydrochloride]
14 | 19.6 | 7.04 | CCCCNC(=O)c1ccc(-c2cc3ccsc3c(N3CCN(CC)CC3)n2)cc1 [Example 452, 7-(4-ethylpiperazin-1-yl)-5-[4-(N-butylcarbamoyl)phenyl]thieno[2,3-c]pyridine dihydrochloride]
15 | 47.8 | 1.4 | CCN1CCN(c2nc(-c3ccc(C#CCO)cc3)cc3sccc23)CC1 [Example 464, 4-(4-ethylpiperazin-1-yl)-6-[4-(3-hydroxy-1-propynyl)phenyl]thieno[3,2-c]pyridine pyridine]
16 | 25.1 | 28.7 | CCN1CCN(c2nc(-c3ccc(CCCO)cc3)cc3cccnc23)CC1 [Example 247, 8-(1-ethylpiperazin-4-yl)-6-[4-(3-hydroxypropyl)phenyl]-1,7-naphthyridine Dihydrochloride]
17 | 3.8 | 7.2 | CCN1CCN(c2nc(-c3ccc(S(=O)(=O)CC)cc3)cc3ccccc23)CC1 [Example 366, 1-(4-ethylpiperazin-1-yl)-3-[4-(ethylsulfonyl)phenyl]isoquinoline dihydrochloride]
18 | 7.7 | 10 | CCN1CCN(c2nc(-c3ccc(S(=O)(=O)N4CCOCC4)cc3)cc3ccccc23)CC1 [Example 75, 3-[(4-Morpholinyl)Sulfonylphenyl]-1-(4-Ethylpiperazin-1-Yl)Isoquinoline Hydrochloride]
19 | 29.3 | 66.6 | CCN1CCN(c2nc(-c3ccc(OCCOC)c(OCCOC)c3)cc3ccccc23)CC1 [Example 43, 3-[3,4-Di(2-Methoxyethoxy)Phenyl]-1-(4-Ethylpiperazin-1-Yl)Isoquinoline Hydrochloride]
20 | 10.7 | 23.8 | CCN1CCN(c2nc(-c3csc(CO)c3)cc3ccccc23)CC1 [Example 161, 1-(1-ethylpiperazin-4-yl)-3-(2-hydroxymethylthiophen-4-yl)isoquinoline dihydrochloride]
21 | 61.3 | 3.34 | CCN1CCN(c2nc(-c3ccc(N4CCSCC4)nc3)cc3ccsc23)CC1 [Example 264, 5-[2-(4-thiomorpholinyl)pyridin-5-yl]-7-(4-ethylpiperazine-1-yl)thieno[2,3-c]pyridine Hydrochloride]
22 | 61.6 | 2.7 | CCN1CCN(c2nc(-c3ccc(N4CCC(OC)CC4)cc3)cc3ccccc23)CC1 [Example 98, 1-(4-Ethylpiperazin-1-yl)-3-[4-(4-methoxypiperidin-1-yl)phenyl]isoquinoline Trihydrochloride]
23 | 167 | 49.9 | CCN1CCN(c2nc(C3CCc4ccc(OC)cc43)cc3ccccc23)CC1 (stereo not shown) [Example 114, 3-(6-Methoxyindan-1-yl)-1-(4-ethylpiperazin-1-yl)isoquinoline Oxalate]

Row | SMILES | Ki (serotonin 1A receptor) [nM] | Ki (serotonin 2 receptor) [nM]
24 | CCN1CCN(c2nc(-c3ccc(C(N)=O)cc3)cc3ccccc23)CC1 [Example 408, 1-(4-ethylpiperazin-1-yl)-3-(4-carbamoylphenyl)isoquinoline] | 19.8 | 36.3
25 | CCN1CCN(c2nc(-c3ccc(CO)c(CO)c3)cc3ccccc23)CC1 [Example 394, 1-(4-Ethylpiperazin-1-yl)-3-[(3,4-Dihydroxymethyl)Phenyl]Isoquinoline Dihydrochloride] | 10.7 | 32.9
26 | CCN1CCN(c2nc(-c3ccc(COCCO)cc3)cc3ccccc23)CC1 [Example 44, 3-[4-(2-Hydroxyethoxylmethylphenyl]-1-(4-ethylpiperazin-1-Yl)Isoquinoline Hydrochloride] | 55.4 | 9
27 | CCN1CCN(c2nc(CCCc3ccccc3OCCO)cc3ccccc23)CC1 [Example 110, 1-(1-Ethylpiperazin-4-yl)-3-[3-[2-(2-hydroxyethoxy)phenyl]propyl]isoquinoline] | 58.6 | 109
28 | CCN1CCN(c2nc(/C=C/Cc3ccccc3OC)cc3ccccc23)CC1 [Example 211] | 5.17 | 40.2
29 | CCN1CCN(c2nc(C#Cc3cncc(CCCOC)c3)cc3ccccc23)CC1 [Example 186, 1-(1-Ethylpiperazin-4-Yl)-3-[3-(3-Methoxypropyl)-5-Pyridyl]Ethynylisoquinoline] | 2.83 | 4.5
30 | CCN1CCN(c2nc(-c3ccnc(OC)c3)cc3ccccc23)CC1 [Example 405, 1-(4-ethylpiperazin-1-yl)-3-(2-methoxypyridin-4-yl)isoquinoline] | 22.6 | 10.2
31 | CCN1CCN(c2nc(-c3cc(F)c(OCCO)c(F)c3)cc3ccccc23)CC1 [Example 370, 1-(4-ethylpiperazin-1-yl)-3-[3,5-difluoro-4-(2-hydroxyethoxy)phenyl]isoquinoline] | 23.9 | 3.4
32 | CCCCc1ccc(-c2cc3ccccc3c(N3CCN(CC)CC3)n2)cn1 [Example 131, 1-(1-Ethylpiperazin-4-yl)-3-(2-Butylpyridin-5-yl)Isoquinoline] | 6.4 | 5.8
33 | CCN1CCN(c2nc(-c3ccc(N4CCC5(CC4)OCCO5)cc3)cc3ccccc23)CC1 [Example 96, 3-[4-(4,4-Ethylenedioxypiperidin-1-yl)phenyl]-1-(4-ethylpiperazin-1-yl)isoquinoline] | 138 | 0.1
34 | CCN1CCN(c2nc(/C=C/c3ccncc3)cc3ccccc23)CC1 [Example 210, 1-(1-Ethylpiperazin-4-Yl)-3-[Trans-2-(4-Pyridyl)Ethenyl]Isoquinoline] | 6.56 | 3.95
35 | CCN1CCN(c2nc(-c3ccc(OCCCS(C)(=O)=O)cc3)cc3ccccc23)CC1 [Example 55, 3-[4-(3-Methylsulfonpropoxy)Phenyl]-1-(4-Ethylpiperazin-1-Yl)Isoquinoline Hydorchloride] | 10.4 | 15.3
